# Measurements: patent US20120201762A1, “ORAL CARE COMPOSITION” (COLGATE-PALMOLIVE COMPANY, priority 2009, published 2012)
# Legend:
# VSC in whole saliva [1] = test: Reduction of VSC in whole saliva incubated overnight with cysteine and an amino acid (GC); conditions: for VSC Reduction (%): relative to saliva and cysteine alone, 10% of 0.1% amino acid solution added to 50% whole saliva, overnight incubation; for Effect on VSC in saliva (in words): whole saliva with cysteine
# Method: The effect of serine and other amino acids on VSC was tested. Whole saliva was incubated overnight with cysteine and an additional amino acid selected from serine, proline, tyrosine, glycine, aspargine, glutamic acid, and histidine. In this experiment, 10% of 0.1% amino acid solution was added to 50% whole saliva. GC measurements were made for VSC.
# VSC in whole saliva [2] = test: Headspace VSC in whole saliva incubated with zinc lactate with and without serine (GC); conditions: zinc lactate 0.16%
# Method: The effect of zinc lactate and serine on VSC was tested. Whole saliva with tryptophan (0.14%), zinc lactate (0.16%), and when necessary, serine (0.42%), was incubated overnight at 37° C. After 24 h, the samples were allowed to cool to 25° C. The samples were then quantified for headspace VSC using a GC.
# indole in whole saliva [3] = test: Indole production in whole saliva incubated with tryptophan, zinc lactate with and without serine (GC); conditions: for Indole (ppm): serine 0.42% where present, whole saliva with tryptophan 0.14%, overnight at 37° C.
# Method: The effect of zinc lactate and serine on indole was tested. Whole saliva with tryptophan (0.14%), various concentrations of zinc lactate, and when necessary, serine (0.42%), was incubated overnight at 37° C. After 24 h, the samples were allowed to cool to 25° C. The samples were extracted with hexanes (2 mL) and the organic layer (1 mL) was used for GC quantification.
# indole in whole saliva [4] = test: Reduction of indole in whole saliva incubated with tryptophan and serine (hexanes extraction, GC); conditions: whole saliva with tryptophan 0.14%; for Area Under the Curve (AUC), indole by GC: overnight at 37° C., control without serine 642403
# Method: The effect of serine on indole was tested. Whole saliva with tryptophan (0.14%) and various concentrations of serine was incubated overnight at 37° C. After 24 h, the samples were allowed to cool to 25° C. The samples were extracted with hexanes and the organic layer was used for GC quantification.
smiles,measurement,setting,value
"NCC(=O)O [Glycine, glycine]",VSC Reduction (%),VSC in whole saliva [1],14%
"N[C@@H](Cc1ccc(O)cc1)C(=O)O [Tyrosine, tyrosine]",VSC Reduction (%),VSC in whole saliva [1],0.06%
"N[C@@H](CCC(=O)O)C(=O)O [Glutamic acid, glutamic acid]",VSC Reduction (%),VSC in whole saliva [1],−5.2%
"O=C(O)[C@@H]1CCCN1 [Proline, proline]",VSC Reduction (%),VSC in whole saliva [1],6.99%
"CC(O)C(=O)[O-].CC(O)C(=O)[O-].[Zn+2] (stereo not shown) [Zinc Lactate, zinc lactate]",VSC (ppb),"VSC in whole saliva [2]; headspace VSC, whole saliva with tryptophan 0.14%, serine 0.42% where present, overnight at 37° C.",109.25 ppb
same,Indole (ppm),indole in whole saliva [3]; zinc lactate 0.09%,9.99 ppm
same,Indole (ppm),indole in whole saliva [3]; zinc lactate 0.16%,5.09 ppm
same,Indole (ppm),indole in whole saliva [3]; zinc lactate 0.23%,4.71 ppm
NC(=O)C[C@H](N)C(=O)O [Asparagine],VSC Reduction (%),VSC in whole saliva [1],−2.14%
"N[C@@H](CO)C(=O)O [Serine, (2S)-2-amino-3-hydroxypropanoic acid]","Area Under the Curve (AUC), indole by GC",indole in whole saliva [4]; serine 0.21%,584720
same,"Area Under the Curve (AUC), indole by GC",indole in whole saliva [4]; serine 0.42%,532053
same,"Area Under the Curve (AUC), indole by GC",indole in whole saliva [4]; serine 0.84%,542136
same,Effect on amount of indole in saliva (in words),indole in whole saliva [4],able to reduce amount of indole in saliva
same,Effect of serine added to zinc lactate on VSC production (in words),VSC in whole saliva [2]; serine 0.42%,enhances the effect of zinc lactate and reduces VSC production
same,VSC Reduction (%),VSC in whole saliva [1],36.56%
same,Effect on VSC in saliva (in words),VSC in whole saliva [1],greatest percent reduction of VSC
same,Effect on VSC in saliva (in words),VSC in whole saliva [1]; listed as serine,able to reduce VSC in saliva
same,Effect of serine added to zinc lactate on indole production (in words),"indole in whole saliva [3]; various concentrations of zinc lactate, serine 0.42%",enhances the effect of zinc lactate and reduces indole production
"N[C@@H](Cc1c[nH]cn1)C(=O)O [Histidine, histidine]",VSC Reduction (%),VSC in whole saliva [1],1.36%
